Measured values: ChEMBL document CHEMBL1201862, “PubChem BioAssay data set” (2004)
Active and inactive are the calls of the source.

Assays:
Trypsin = Trypsin (Sus scrofa, UniProt P00761); assay: trypsin protease activity blockade – biochemical, quenched peptide fluorescence, cherry-pick, selectivity assay for Rce1 protease inhibitor project, dose response (AID 488789)
CAAX prenyl protease 2 = target: T1, CAAX prenyl protease 2 (Saccharomyces cerevisiae S288c, UniProt Q03530); type: biochemical
T1 sequence (Q03530 whole entry): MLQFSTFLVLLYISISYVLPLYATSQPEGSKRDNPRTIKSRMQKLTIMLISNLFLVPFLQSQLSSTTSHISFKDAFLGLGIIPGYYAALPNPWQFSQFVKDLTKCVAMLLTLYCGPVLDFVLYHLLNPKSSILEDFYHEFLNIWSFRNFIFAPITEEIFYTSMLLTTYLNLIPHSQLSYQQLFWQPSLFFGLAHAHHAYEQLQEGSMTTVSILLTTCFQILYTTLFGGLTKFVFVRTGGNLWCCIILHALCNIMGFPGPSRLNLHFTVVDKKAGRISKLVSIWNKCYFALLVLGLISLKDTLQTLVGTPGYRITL

CAAX prenyl protease 1 = CAAX prenyl protease 1 (Saccharomyces cerevisiae S288c, UniProt P47154); assay: yeast CAAX protease Ste24 inhibition – biochemical, S. cerevisiae, plate reader, cherry-pick, dose response (AID 488815)
Sequence of CAAX prenyl protease 1 (P47154 whole entry): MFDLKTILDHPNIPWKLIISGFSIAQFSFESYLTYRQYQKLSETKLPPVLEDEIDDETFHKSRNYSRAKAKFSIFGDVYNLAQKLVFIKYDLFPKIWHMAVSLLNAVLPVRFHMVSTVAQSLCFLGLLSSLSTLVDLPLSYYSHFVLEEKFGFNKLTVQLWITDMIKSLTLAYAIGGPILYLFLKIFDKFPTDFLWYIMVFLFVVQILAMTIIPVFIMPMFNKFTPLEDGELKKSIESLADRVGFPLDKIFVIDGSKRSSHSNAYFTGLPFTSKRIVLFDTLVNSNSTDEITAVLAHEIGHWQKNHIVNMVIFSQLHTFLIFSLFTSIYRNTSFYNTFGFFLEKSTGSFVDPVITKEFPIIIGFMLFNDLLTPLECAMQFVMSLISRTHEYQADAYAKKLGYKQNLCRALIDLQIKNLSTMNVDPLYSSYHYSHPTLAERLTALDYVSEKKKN

[1] = target: T2, Tyrosine-protein phosphatase non-receptor type 7 (Homo sapiens, UniProt P35236); assay: redox-active compounds inhibiting HePTP phosphatase – biochemical, fluorescence, mechanism study (AID 2068); type: functional
T2 sequence (P35236 whole entry): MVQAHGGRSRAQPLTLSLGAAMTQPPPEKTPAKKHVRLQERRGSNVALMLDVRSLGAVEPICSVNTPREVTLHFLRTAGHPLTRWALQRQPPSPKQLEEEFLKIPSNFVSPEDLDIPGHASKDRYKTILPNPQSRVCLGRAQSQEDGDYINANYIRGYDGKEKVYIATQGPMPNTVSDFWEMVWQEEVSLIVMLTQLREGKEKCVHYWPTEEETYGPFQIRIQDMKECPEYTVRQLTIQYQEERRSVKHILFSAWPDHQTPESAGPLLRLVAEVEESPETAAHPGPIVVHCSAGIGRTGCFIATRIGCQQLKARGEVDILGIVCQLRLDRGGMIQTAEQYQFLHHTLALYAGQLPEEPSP

[2] = target: T3, Dual specificity protein phosphatase 3 (Homo sapiens, UniProt P51452); assay: SAR VHR1 absorbance Assay for In Vitro dose response studies. [Related pubchem assays (depositor defined):AID1654, AID1661, AID1878, AID1992, AID2004]
T3 sequence (P51452 whole entry): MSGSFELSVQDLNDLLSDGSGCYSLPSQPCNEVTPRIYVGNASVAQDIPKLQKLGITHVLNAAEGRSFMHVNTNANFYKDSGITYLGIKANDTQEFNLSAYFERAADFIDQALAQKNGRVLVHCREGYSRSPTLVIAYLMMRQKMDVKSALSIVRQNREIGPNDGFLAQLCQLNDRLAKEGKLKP

[3] = target: Dual specificity protein phosphatase 6 (Rattus norvegicus, UniProt Q64346); type: functional;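 note: confirmatory in vitro dose-response testing of MKP-3 inhibition; recombinant His-tagged MKP-3 made in E. coli BL21 with OMFP substrate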
Sequence of Dual specificity protein phosphatase 6 (Q64346 whole entry): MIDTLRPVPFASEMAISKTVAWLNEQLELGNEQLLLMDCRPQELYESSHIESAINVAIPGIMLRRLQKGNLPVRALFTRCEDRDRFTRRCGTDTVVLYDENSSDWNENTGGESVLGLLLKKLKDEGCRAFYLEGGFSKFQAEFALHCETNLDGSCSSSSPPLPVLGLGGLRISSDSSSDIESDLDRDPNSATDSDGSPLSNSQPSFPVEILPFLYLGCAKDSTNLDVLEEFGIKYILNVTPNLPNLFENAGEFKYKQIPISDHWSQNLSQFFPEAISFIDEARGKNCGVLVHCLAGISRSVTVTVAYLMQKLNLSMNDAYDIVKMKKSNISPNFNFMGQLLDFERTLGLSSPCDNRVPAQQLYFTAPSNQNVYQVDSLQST

[4] = target: T3, Dual specificity protein phosphatase 3; assay: SAR VHR1 Fluorescent Assay for In Vitro dose response studies. [Related pubchem assays (depositor defined):AID1654, AID1661, AID1878, AID1992, AID2004, AID2070, AID2085]; type: functional
INS1 [5] = assay: suppression of NO production in INS-1E cells – cell-based, Griess absorbance, dry powder, dose response (AID 488866); type: functional; details: Rattus norvegicus
[6] = luciferase reporter signal suppression in cells – H4 neuroglioma cells, luminescence, dose response (AID 1990); type: functional, cell-based
[7] = THP-1 cell cytotoxicity, dose response, cytotoxicity control for non-replicating M. tuberculosis project (AID 489025); type: functional
Exodeoxyribonuclease V = Exodeoxyribonuclease V (Escherichia coli (strain K12), UniProt P04993+P07648+P08394); assay: RecBCD inhibition via phage-restricted bacterial growth – absorbance, V66 E. coli, mutant T4 phage, counter-screen for AddAB inhibitor project, dose response (AID 492957); type: functional, cell-based, Escherichia coli str. K-12 substr. MG1655
Sequence of Exodeoxyribonuclease V (P04993 whole entry): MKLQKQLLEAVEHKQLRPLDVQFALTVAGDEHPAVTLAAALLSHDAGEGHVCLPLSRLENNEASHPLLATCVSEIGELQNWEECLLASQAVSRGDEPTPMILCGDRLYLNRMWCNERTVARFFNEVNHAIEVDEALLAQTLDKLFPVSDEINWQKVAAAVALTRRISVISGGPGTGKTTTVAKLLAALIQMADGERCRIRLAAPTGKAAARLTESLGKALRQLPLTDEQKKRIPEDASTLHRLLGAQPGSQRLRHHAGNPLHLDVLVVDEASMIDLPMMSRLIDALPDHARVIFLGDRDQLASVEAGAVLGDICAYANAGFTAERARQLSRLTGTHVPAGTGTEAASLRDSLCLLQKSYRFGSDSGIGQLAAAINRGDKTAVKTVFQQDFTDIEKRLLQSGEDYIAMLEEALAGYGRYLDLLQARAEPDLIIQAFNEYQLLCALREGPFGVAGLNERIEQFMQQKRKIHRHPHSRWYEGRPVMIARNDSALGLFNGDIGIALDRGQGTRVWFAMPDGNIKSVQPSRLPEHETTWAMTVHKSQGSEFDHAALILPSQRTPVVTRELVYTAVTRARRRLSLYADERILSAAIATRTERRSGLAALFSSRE
Sequence of Exodeoxyribonuclease V (P07648 whole entry): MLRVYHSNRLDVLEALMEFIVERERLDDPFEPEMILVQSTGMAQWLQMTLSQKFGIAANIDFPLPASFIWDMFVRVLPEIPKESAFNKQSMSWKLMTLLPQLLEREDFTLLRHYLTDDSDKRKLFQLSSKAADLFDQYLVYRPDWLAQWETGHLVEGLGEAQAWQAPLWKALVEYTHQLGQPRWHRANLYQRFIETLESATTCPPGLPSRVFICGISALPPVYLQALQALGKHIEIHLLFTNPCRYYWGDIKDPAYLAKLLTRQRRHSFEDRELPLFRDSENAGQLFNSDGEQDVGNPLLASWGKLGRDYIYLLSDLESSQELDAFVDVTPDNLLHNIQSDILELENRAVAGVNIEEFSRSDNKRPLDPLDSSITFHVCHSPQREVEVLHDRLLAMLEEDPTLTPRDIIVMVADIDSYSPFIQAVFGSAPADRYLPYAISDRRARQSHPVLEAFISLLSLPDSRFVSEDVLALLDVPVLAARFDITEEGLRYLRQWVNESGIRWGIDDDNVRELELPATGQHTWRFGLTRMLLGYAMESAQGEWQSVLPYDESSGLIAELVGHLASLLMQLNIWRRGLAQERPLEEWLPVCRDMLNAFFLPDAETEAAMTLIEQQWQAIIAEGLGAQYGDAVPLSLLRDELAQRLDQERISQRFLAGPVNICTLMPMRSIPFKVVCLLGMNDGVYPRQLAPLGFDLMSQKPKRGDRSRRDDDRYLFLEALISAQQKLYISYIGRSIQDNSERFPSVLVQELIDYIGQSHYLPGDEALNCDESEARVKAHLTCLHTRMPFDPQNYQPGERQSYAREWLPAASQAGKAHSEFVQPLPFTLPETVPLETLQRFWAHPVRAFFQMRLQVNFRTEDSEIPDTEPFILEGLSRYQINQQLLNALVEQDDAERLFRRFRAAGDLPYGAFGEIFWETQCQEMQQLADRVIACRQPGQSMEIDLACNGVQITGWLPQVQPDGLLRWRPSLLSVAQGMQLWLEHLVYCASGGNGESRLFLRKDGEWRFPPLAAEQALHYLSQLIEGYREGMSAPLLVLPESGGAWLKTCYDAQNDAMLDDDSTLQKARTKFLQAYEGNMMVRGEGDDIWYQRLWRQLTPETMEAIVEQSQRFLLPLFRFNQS
Sequence of Exodeoxyribonuclease V (P08394 whole entry): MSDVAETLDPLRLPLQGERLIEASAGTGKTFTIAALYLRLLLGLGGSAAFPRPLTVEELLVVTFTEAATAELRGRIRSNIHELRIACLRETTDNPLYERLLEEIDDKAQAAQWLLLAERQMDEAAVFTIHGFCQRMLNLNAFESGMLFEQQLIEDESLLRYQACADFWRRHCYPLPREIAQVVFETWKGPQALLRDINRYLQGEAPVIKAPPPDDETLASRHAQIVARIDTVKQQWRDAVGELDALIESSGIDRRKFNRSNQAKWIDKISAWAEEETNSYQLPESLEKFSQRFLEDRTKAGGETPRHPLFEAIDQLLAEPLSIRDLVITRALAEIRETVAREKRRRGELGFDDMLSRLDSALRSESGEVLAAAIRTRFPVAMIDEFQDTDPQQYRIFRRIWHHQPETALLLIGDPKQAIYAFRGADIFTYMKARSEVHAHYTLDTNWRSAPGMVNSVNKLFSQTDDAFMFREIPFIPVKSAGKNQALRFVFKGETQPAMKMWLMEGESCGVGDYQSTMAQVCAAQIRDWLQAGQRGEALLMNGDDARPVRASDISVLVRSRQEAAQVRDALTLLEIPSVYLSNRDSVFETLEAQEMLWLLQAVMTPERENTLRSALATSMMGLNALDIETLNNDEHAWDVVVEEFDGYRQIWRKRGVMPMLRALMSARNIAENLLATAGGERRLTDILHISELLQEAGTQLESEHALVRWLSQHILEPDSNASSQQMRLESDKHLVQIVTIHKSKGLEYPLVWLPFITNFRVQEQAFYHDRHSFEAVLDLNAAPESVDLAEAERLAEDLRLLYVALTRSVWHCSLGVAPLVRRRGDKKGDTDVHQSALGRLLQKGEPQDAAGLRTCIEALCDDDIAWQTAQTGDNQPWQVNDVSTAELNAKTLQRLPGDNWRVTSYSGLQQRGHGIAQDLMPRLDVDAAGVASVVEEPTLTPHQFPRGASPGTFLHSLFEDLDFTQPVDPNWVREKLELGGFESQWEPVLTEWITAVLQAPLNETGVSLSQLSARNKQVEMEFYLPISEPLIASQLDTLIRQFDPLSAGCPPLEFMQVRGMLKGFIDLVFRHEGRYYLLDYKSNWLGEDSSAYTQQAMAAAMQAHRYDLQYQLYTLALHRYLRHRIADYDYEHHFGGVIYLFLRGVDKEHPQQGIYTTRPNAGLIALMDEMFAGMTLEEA

INS1 [8] = assay: INS-1E survival protection against cytokine death – cell-based, luminescence, retest, dose response (AID 449756); type: functional; details: Rattus norvegicus;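 note: cell death triggered by IL-1 beta plus TNF-alpha plus IFN-gamma mixture; protective hits raise ATP signal compared with cytokine alone wells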
BJ [9] = assay: BJ-TERT fibroblast viability loss – cell-based, RAS-independent, luminescence, dose response (AID 1933); type: functional; details: Homo sapiens
[10] = DRD fibroblast viability loss – cell-based, non-viral oncogenic, luminescence, dose response (AID 1934); type: functional; details: Homo sapiens
Nonstructural protein 1 = Nonstructural protein 1 (Influenza A virus, UniProt Q194T2); type: functional, Influenza A virus (A/California/07/2009(H1N1))
Sequence of Nonstructural protein 1 (Q194T2 whole entry): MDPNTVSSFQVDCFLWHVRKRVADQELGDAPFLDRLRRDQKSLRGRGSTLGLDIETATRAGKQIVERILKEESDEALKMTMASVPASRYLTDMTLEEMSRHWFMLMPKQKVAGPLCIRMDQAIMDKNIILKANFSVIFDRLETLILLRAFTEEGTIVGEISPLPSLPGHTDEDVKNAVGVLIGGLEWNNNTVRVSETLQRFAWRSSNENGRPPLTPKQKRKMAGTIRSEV

[11] = alpha-synuclein stem-loop luciferase translation blockers – H4 neuroglioma cells, luminescence, confirmation (AID 1988); type: functional, cell-based
HEK293 = assay: EBV LMP1 TES2 canonical NF-kB signalling blockers – cell-based, HEK293, luciferase, cherry-pick, dose response (AID 588343); type: functional; details: Homo sapiens
cells [12] = type: functional, cell-based
BJ [13] = assay: growth inhibition of engineered Ras-driven BJ cells – cell-based, alamar blue fluorescence, cherrypicked samples, dose response (AID 2631); type: functional; details: Homo sapiens;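 note: confirmatory dose-response assay in RAS-dependent BJ fibroblasts engineered with TERT, LT and ST, with cytotoxicity read by fluorescence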
[14] = Luminescence Cell-Based Dose Response HTS to Identify Inhibitors of 5'UTR Stem-Loop Driven Prion Protein mRNA Translation in H4 Neuroglioblastoma Cells. [Related pubchem assays: 1827 (Project Summary), 1813 (Primary HTS)]; type: functional
BJ [15] = assay: BJ-TERT-LT-ST fibroblast viability loss – cell-based, RAS-independent, luminescence, dose response (AID 1935); type: functional; details: Homo sapiens;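 note: BJ fibroblasts immortalized with TERT plus LT and ST oncogenes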
[16] = target: Intestinal-type alkaline phosphatase (Homo sapiens, UniProt P09923); assay: Dose Response confirmation of uHTS hits from a small molecule inhibitors of human intestinal alkaline phosphatase via a luminescent assay. [Related pubchem assays (depositor defined):AID2544, AID2574]; type: functional
Sequence of Intestinal-type alkaline phosphatase (P09923 whole entry): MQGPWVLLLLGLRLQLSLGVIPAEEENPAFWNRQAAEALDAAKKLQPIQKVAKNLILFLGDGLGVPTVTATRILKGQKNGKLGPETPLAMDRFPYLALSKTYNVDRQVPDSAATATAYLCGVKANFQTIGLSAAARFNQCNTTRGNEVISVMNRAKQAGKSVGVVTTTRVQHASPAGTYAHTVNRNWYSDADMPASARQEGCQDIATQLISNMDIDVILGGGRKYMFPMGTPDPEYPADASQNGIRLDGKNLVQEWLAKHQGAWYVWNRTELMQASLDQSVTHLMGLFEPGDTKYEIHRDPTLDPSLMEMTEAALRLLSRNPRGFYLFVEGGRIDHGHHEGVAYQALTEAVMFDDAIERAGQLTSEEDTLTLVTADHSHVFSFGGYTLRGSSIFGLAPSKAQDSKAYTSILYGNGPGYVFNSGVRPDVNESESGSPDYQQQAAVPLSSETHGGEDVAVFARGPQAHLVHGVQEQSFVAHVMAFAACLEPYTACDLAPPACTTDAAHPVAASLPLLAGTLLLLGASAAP

cells [17] = type: functional
BJ [18] = assay: cells; type: functional, cell-based; details: Homo sapiens
[19] = target: Heat shock protein HSP 90-alpha (Homo sapiens, UniProt P07900); type: functional, organism-based
cells [20] = type: functional, cell-based; remark: listed apart in the source
[21] = Counterscreen for AddAB inhibitors: absorbance-based bacterial cell-based high throughput dose response assay for inhibitors of bacterial viability. [Related pubchem assays (depositor defined):AID435030, AID449728, AID449731, AID488942, AID488955, AID488956]; type: functional

Sequence of Trypsin (P00761 whole entry): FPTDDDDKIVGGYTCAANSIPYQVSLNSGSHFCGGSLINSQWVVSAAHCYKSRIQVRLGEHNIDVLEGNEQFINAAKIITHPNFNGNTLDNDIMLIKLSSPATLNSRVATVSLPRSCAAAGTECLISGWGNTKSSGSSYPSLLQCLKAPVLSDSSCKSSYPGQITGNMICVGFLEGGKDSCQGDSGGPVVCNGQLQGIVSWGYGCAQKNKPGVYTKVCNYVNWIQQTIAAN

COc1ccccc1-c1coc2c(CN3CCN(C)CC3)c(O)ccc2c1=O
AC50 (Trypsin): 28.3 µM (active) | AC50 (CAAX prenyl protease 2): 97.9 µM (active) | AC50 (CAAX prenyl protease 1): 1.57 µM (active)

S=C(NC1CCCCC1)c1cn(CCOc2ccccc2)c2ccccc12
IC50 [1]: > 100 µM (inactive) | IC50 [2]: > 100 µM (inactive) | IC50 [3]: > 100 µM (inactive) | IC50 [4]: > 100 µM (inactive)

COc1ccc(S(=O)(=O)N(C)C[C@@H]2Oc3c(NC(=O)NC4CCCc5ccccc54)cccc3C(=O)N([C@@H](C)CO)C[C@H]2C)cc1 (some centres not stated)
AC50 (INS1 [5]): 124 µM (active)

Cn1nnnc1N=N/C(=N/Nc1ccccc1)c1ccccc1
EC50 [6]: > 120 µM (not active) | CC50 [7]: < 0.078 µM (active) | IC50 (Exodeoxyribonuclease V): > 119 µM (inactive) | AC50 (INS1 [8]): 0.408 µM (active) | EC50 (BJ [9]): 5.67 µM (active) | EC50 [10]: 7.59 µM (inconclusive) | IC50 (Nonstructural protein 1): 26.5 µM (active) | EC50 [11]: 8.09 µM (active) | AC50 (HEK293): 2.69 µM (active) | EC50 (cells [12]): 8.13 µM (active) | EC50 (BJ [13]): 0.627 µM (inconclusive) | EC50 [14]: > 120 µM (not active) | EC50 (BJ [15]): 4.63 µM (inconclusive) | IC50 [16]: > 100 µM (inactive) | IC50 (cells [17]): 26.6 µM (active) | EC50 (BJ [18]): 2.17 µM (active) | AC50 [19]: 3.55 µM (active) | EC50 (cells [20]): > 350 µM (not active) | IC50 [21]: > 119 µM (inactive)
